# Laboratory results as given in patent US9745310B2 (SK BIOPHARMACEUTICALS CO., LTD., priority 2015, dated 2017).
# Biological target: human mGluR5 receptor (Homo sapiens (Human), UniProt P41594)
# Experiment: Calcium influx assay based on fluorescence (mGluR5 PAM activity)
# Conditions: human mGluR5 receptor-overexpressed HEK293 cell line; L-glutamate EC20; Fluo-4, FLIPR
# Procedure: Efficacy as a positive allosteric modulator (PAM) of mGluR5 of the compounds of the Examples was tested as follows:
# Calcium Influx Assay Based on Fluorescence
# Ca^2+ (calcium) influx assay is an experiment for measuring the activity of a positive allosteric modulator of mGluR5 receptor in which human mGluR5 receptor-overexpressed HEK293 cell line is used. The day before the experiment, cells were prepared in a cell culture medium (DMEM, 5% FBS) with the density of 80,000/well, and 100 μl of cells were dispensed into each well of a poly-D-lysine-coated 96-well plate. Cells were incubated in a 5% CO2, 37° C. incubator. The next day, the cell culture medium was removed from the plate, and 100 μl of 1× Fluo-4 calcium indicator diluted with a buffer (1× Hank's balanced salt solution, 20 mM HEPES, 2.5 mM probenecid) were added to each well and incubated at 37° C. for 1 hour. The compound stock solutions were prepared in 100% DMSO, and the compounds were serially diluted with a ¼ dilution to 6 or 7 concentrations (final concentration was 10 μM to 10 nM). The diluted compound solutions were added to the plate with 0.1 to 0.2% of final DMSO concentration. 1 hour after the addition of Fluo-4 calcium indicator, L-glutamate (EC20 concentration) and the test compound solutions were added to the plate, and Ca^2+ reaction was then measured by FLIPR at room temperature. The activity of the compounds was standardized on the basis of the results of maximum value-minimum value of fluorescent reaction, and the activity value was calculated on the basis that no activity on glutamate EC20 is 0% and the reaction to glutamate maximum value is 100%.
# Sequence of human mGluR5 receptor (P41594 21-1212): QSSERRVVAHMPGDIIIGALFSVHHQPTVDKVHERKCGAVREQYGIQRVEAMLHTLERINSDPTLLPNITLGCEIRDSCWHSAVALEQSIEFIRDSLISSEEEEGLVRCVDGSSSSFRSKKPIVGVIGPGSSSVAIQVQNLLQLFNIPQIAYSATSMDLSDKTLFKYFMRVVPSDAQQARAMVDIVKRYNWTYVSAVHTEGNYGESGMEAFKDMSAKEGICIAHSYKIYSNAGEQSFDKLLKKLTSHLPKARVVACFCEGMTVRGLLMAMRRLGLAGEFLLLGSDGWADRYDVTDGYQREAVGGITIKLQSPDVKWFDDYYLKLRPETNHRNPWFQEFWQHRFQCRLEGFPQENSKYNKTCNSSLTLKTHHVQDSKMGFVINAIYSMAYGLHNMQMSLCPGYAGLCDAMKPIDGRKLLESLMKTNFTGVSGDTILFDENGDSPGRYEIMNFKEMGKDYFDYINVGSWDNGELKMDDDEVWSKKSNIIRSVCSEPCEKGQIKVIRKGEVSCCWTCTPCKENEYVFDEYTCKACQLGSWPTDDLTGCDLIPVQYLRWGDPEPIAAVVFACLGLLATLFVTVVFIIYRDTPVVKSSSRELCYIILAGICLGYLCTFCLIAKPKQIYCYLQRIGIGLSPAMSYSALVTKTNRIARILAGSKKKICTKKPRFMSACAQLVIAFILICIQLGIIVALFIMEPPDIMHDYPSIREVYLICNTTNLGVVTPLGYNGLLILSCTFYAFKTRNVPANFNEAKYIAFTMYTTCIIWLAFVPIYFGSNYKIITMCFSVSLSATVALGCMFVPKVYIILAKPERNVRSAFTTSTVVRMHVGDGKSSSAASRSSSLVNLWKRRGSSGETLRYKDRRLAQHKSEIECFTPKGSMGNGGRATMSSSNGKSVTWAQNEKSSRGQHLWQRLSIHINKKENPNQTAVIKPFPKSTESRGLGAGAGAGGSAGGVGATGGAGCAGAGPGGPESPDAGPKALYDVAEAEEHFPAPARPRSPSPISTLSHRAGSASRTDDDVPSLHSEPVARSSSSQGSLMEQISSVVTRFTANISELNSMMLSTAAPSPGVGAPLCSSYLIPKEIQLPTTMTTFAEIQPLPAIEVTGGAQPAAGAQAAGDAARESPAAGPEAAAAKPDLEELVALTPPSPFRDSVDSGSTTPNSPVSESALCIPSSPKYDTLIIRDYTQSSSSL
row,EC50 [nM],SMILES
1,100 to 500,"Oc1cc(-c2cnc3nc(COc4ccc(F)cc4)cn3c2)ccc1F [Example 55, 2-fluoro-5-[2-[(4-fluorophenoxy)methyl]imidazo[1,2-a]pyrimidin-6-yl]phenol]"
2,100 to 500,"COc1c(F)cccc1-c1cnc2nc(COc3ccccn3)cn2c1 [Example 112, 6-(3-fluoro-2-methoxy-phenyl)-2-(2-pyridyloxymethyl)imidazo[1,2-a]pyrimidine]"
3,100 to 500,"OCc1cc(F)ccc1-c1cnc2nc(COc3ccccn3)cn2c1 [Example 135, [5-fluoro-2-[2-(2-pyridyloxymethyl)imidazo[1,2-a]pyrimidin-6-yl]phenyl]methanol]"
4,100 to 500,"NC(=O)OCc1cc(F)ccc1-c1cnc2nc(COc3ccccc3)cn2c1 [Example 194, [5-fluoro-2-[2-(phenoxymethyl)imidazo[1,2-a]pyrimidin-6-yl]phenyl]methyl carbamate]"
5,500 to 1000,"Fc1ccc(-c2cnc3nc(COc4ccc(F)nc4)cn3c2)c(F)c1 [Example 157, 6-(2,4-difluorophenyl)-2-(6-fluoropyridin-3-yloxymethyl)imidazo[1,2-a]pyrimidine]"
6,500 to 1000,"Oc1cccc(-c2cnc3nc(COc4ccccc4)cn3c2)c1 [Example 17, 6-(3-hydroxyphenyl)-2-phenoxymethylimidazo[1,2-a]pyrimidine]"
7,100 to 500,"Nc1cc(-c2cnc3nc(COc4ccc(F)cc4)cn3c2)ccc1F [Example 70, 2-fluoro-5-[2-[(4-fluorophenoxy)methyl]imidazo[1,2-a]pyrimidin-6-yl]aniline]"
8,100 to 500,"Fc1cc(OCc2cn3cc(-c4cccc(F)c4F)cnc3n2)ccn1 [Example 165, 6-(2,3-difluorophenyl)-2-(2-fluoropyridin-4-yloxymethyl)imidazo[1,2-a]pyrimidine]"
9,100 to 500,"FC(F)(F)c1ccc(-c2cnc3nc(COc4ccccn4)cn3c2)cn1 [Example 130, 2-(2-pyridyloxymethyl)-6-[6-(trifluoromethyl)-3-pyridyl]imidazo[1,2-a]pyrimidine]"
10,100 to 500,"Cc1ccncc1-c1cnc2nc(COc3ccc(F)cc3)cn2c1 [Example 78, 2-[(4-fluorophenoxy)methyl]-6-(4-methyl-3-pyridyl)imidazo[1,2-a]pyrimidine]"
11,100 to 500,"Oc1cc(F)ccc1-c1cnc2nc(COc3ccc(F)cc3)cn2c1 [Example 58, 5-fluoro-2-[2-[(4-fluorophenoxy)methyl]imidazo[1,2-a]pyrimidin-6-yl]phenol]"
12,100 to 500,"Nc1cc(-c2cnc3nc(COc4ccccn4)cn3c2)ccc1F [Example 134, 2-fluoro-5-[2-(2-pyridyloxymethyl)imidazo[1,2-a]pyrimidin-6-yl]aniline]"
13,100 to 500,"Fc1cccc(OCc2cn3cc(-c4ccc(F)nc4F)cnc3n2)c1 [Example 71, 6-(2,6-difluoro-3-pyridyl)-2-[(3-fluorophenoxy)methyl]imidazo[1,2-a]pyrimidine]"
14,500 to 1000,"Fc1cncc(OCc2cn3cc(-c4ccc(F)cc4C(F)(F)F)cnc3n2)c1 [Example 173, 2-[(5-fluoro-3-pyridyl)oxymethyl]-6-[4-fluoro-2-(trifluoromethyl)phenyl]imidazo[1,2-a]pyrimidine]"
15,100 to 500,"Fc1ccccc1-c1cnc2nc(COc3ccccc3)cn2c1 [Example 1, 6-(2-fluorophenyl)-2-phenoxymethylimidazo[1,2-a]pyrimidine]"
16,100 to 500,"Fc1ccc(-c2cnc3nc(COc4ccccn4)cn3n2)c(F)c1 [Example 180, 2-(2,4-difluorophenyl)-6-((pyridin-2-yloxy)methyl)imidazo[1,2-b][1,2,4]triazine]"
17,100 to 500,"Nc1cc(F)ccc1-c1cnc2nc(COc3ccccc3)cn2c1 [Example 27, 6-(2-amino-4-fluorophenyl)-2-phenoxymethylimidazo[1,2-a]pyrimidine]"
18,500 to 1000,"Cc1ccc(F)cc1-c1cnc2nc(COc3ccccn3)cn2c1 [Example 108, 6-(5-fluoro-2-methylphenyl)-2-(pyridin-2-yloxymethyl)imidazo[1,2-a]pyrimidine]"
19,500 to 1000,"O=Cc1ccc(-c2cnc3nc(COc4ccccn4)cn3c2)c(C(F)(F)F)c1 [Example 144, 4-[2-(2-pyridyloxymethyl)imidazo[1,2-a]pyrimidin-6-yl]-3-(trifluoromethyl)benzaldehyde]"
20,500 to 1000,"Cc1cccc(C)c1-c1cnc2nc(COc3ccc(F)cc3)cn2c1 [Example 50, 6-(2,6-dimethylphenyl)-2-(4-fluorophenoxymethyl)imidazo[1,2-a]pyrimidine]"

row,EC50 [nM],SMILES
1,500 to 1000,"OCc1cc(F)ccc1-c1cnc2nc(COc3ccc(F)cn3)cn2c1 [Example 139, [5-fluoro-2-[2-[(5-fluoro-2-pyridyl)oxymethyl]imidazo[1,2-a]pyrimidin-6-yl]phenyl]methanol]"
2,100 to 500,"Cc1ccc(N)c(-c2cnc3nc(COc4ccc(F)cc4)cn3c2)c1 [Example 76, 2-[2-[(4-fluorophenoxy)methyl]imidazo[1,2-a]pyrimidin-6-yl]-4-methyl-aniline]"
3,100 to 500,"COc1ccc(-c2cnc3nc(COc4ccc(F)cc4)cn3c2)nc1 [Example 86, 2-[(4-fluorophenoxy)methyl]-6-(5-methoxy-2-pyridyl)imidazo[1,2-a]pyrimidine]"
4,100 to 500,"Fc1ccc(-c2cnc3nc(COc4cc(F)ccn4)cn3c2)cc1 [Example 123, 6-(4-fluorophenyl)-2-[(4-fluoro-2-pyridyl)oxymethyl)imidazo[1,2-a]pyrimidine]"
5,100 to 500,"Fc1ccc(-c2cnc3nc(COc4ccccn4)cn3c2)c(C(F)(F)F)c1 [Example 113, 6-[4-fluoro-2-(trifluoromethyl)phenyl]-2-(2-pyridyloxymethyl)imidazo[1,2-a]pyrimidine]"
6,100 to 500,"Fc1ccc(-c2cnc3nc(COc4ccnc(F)c4)cn3n2)c(F)c1 [Example 183, 2-(2,4-difluorophenyl)-6-((2-fluoropyridin-4-yloxy)methyl)imidazo[1,2-b][1,2,4]triazine]"
7,100 to 500,"Fc1ccc(OCc2cn3cc(-c4ccc(F)cc4CCl)cnc3n2)cc1 [Example 197, 6-[2-(chloromethyl)-4-fluoro-phenyl]-2-[(4-fluorophenoxy)methyl)imidazo[1,2-a]pyrimidine]"
8,100 to 500,"Fc1ccc(-c2cnc3nc(COc4ccccc4)cn3c2)c(C(F)(F)F)c1 [Example 18, 6-(4-fluoro-2-trifluoromethylphenyl)-2-phenoxymethylimidazo[1,2-a]pyrimidine]"
9,100 to 500,"c1ccc(OCc2cn3cc(-c4ccccc4)cnc3n2)cc1 [Example 2, 2-phenoxymethyl-6-phenylimidazo[1,2-a]pyrimidine]"
10,100 to 500,"Fc1ccc(-c2cnc3nc(COc4ccnc(F)c4)cn3c2)c(C(F)(F)F)c1 [Example 174, 2-[(2-fluoro-4-pyridyl)oxymethyl]-6-[4-fluoro-2-(trifluoromethyl)phenyl]imidazo[1,2-a]pyrimidine]"
11,500 to 1000,"COc1cc(Cl)ccc1-c1cnc2nc(COc3ccccc3)cn2c1 [Example 22, 6-(4-chloro-2-methoxyphenyl)-2-phenoxymethylimidazo[1,2-a]pyrimidine]"
12,500 to 1000,"Fc1ccc(OCc2cn3cc(-c4ccncc4Cl)cnc3n2)cc1 [Example 49, 6-(3-chloropyridin-4-yl)-2-(4-fluorophenoxymethyl)imidazo[1,2-a]pyrimidine]"
13,100 to 500,"Fc1cc(-c2cnc3nc(COc4ccccc4)cn3c2)ccn1 [Example 35, 6-(2-fluoropyridin-4-yl)-2-phenoxymethylimidazo[1,2-a]pyrimidine]"
14,100 to 500,"Nc1ccccc1-c1cnc2nc(COc3ccc(F)cc3)cn2c1 [Example 66, 2-[2-[(4-fluorophenoxy)methyl]imidazo[1,2-a]pyrimidin-6-yl]aniline]"
15,100 to 500,"Cc1cc(Cl)ccc1-c1cnc2nc(COc3ccccn3)cn2n1 [Example 190, 2-(4-chloro-2-methyl-phenyl)-6-(2-pyridyloxymethyl)imidazo[1,2-b][1,2,4]triazine]"
16,500 to 1000,"COc1cc(-c2cnc3nc(COc4ccccc4)cn3c2)c(F)cc1F [Example 28, 6-(2,4-difluoro-5-methoxyphenyl)-2-phenoxymethylimidazo[1,2-a]pyrimidine]"
17,100 to 500,"COc1cc(Cl)ccc1-c1cnc2nc(COc3ccc(F)cc3)cn2c1 [Example 69, 6-(4-chloro-2-methoxy-phenyl)-2-[(4-fluorophenoxy)methyl]imidazo[1,2-a]pyrimidine]"
18,100 to 500,"Fc1ccc(OCc2cn3cc(-c4ccc(F)cc4)cnc3n2)cc1 [Example 53, 2-[(4-fluorophenoxy)methyl]-6-(4-fluorophenyl)imidazo[1,2-a]pyrimidine]"
19,100 to 500,"Fc1ccnc(OCc2cn3cc(-c4ccc(F)cc4C(F)(F)F)cnc3n2)c1 [Example 125, 2-[(4-fluoro-2-pyridyl)oxymethyl]-6-[4-fluoro-2-(trifluoromethyl)phenyl]imidazo[1,2-a]pyrimidine]"
20,100 to 500,"Cc1ccncc1-c1cnc2nc(COc3cccc(F)c3)cn2c1 [Example 46, 6-(4-methylpyridin-3-yl)-2-(3-fluorophenoxymethyl)imidazo[1,2-a]pyrimidine]"
